Experimental data published in US9388215B2, “Compositions and methods of using islet neogenesis peptides and analogs thereof” (SHENZHEN HIGHTIDE BIOPHARMACEUTICAL, LTD., priority 2013, dated 2016).

Columns and labels:
[1] = Peptide stability in culture medium (F-12K, 37° C., HPLC); assay type: physicochemical; conditions: F-12K medium, 0.25 mg/mL, 0-72 hours, FIG. 2, FIG. 11
Experimental: To determine the stability of peptides in culture medium, a certain amount of selected peptides was accurately weighed and dissolved in distilled water to 5 mg/mL as a stock solution. The stock solution was diluted to 0.25 mg/mL with F-12K medium (Gibco-BRL, Gaithersburg, Md., USA) as working solution. A volume of 100 μL of each working solution was transferred into individual sample vials. The sample vials were incubated in a 37° C. incubator for 0, 24, 48 and 72 hours before being analyzed and quantitated by HPLC. […]

[2] = assay type: physicochemical; conditions: pH 5
Experimental: Peptide stability in buffers was tested for INGAP-PP and selected analogs. 10 mg/mL of Peptide 1, Peptide 12, Peptide 16, Peptide 29 or Peptide 31 was dissolved in isotonic buffers with pH ranging from 4.0 to 8.0. […] Peptide 12 and Peptide 29 were stable in an isotonic phosphate buffer (pH 7.4) for more than 90 days at 4° C. (there was no sign of degradation at 90 days sample check point), and 60 days at 25° C.

[3] = system: normal C57BL/6J mice; test: Induction of extra islet insulin positive β cell clusters (EIC) in normal C57BL/6J mice; assay type: in vivo, mouse
Experimental: After a 1-week acclimation, female C57BL/6J mice were randomly divided into 6 groups (n=5 per group). The control group received 10 mL/kg sterile normal saline via subcutaneous injection for 10 consecutive days. The other five groups received INGAP-PP (Peptide 1) or INGAP-PP analogs Peptide 12, Peptide 16, Peptide 29 or Peptide 31 at a dose of 50 mg/kg or 5 mg/kg per day, respectively, for the same period. On day 11, the pancreas was removed from each animal, cleared of fat and lymph nodes, weighed, and fixed in 10% neutral buffered formalin (NBF) for no longer than 24 hours before processing for morphometric analysis.
Immunohistochemistry analysis was used to assess the islet neogenic activities of peptides by measuring the number and area of extra islet insulin positive β cell clusters (EIC) of pancreatic tissues harvested from each individual group post 10 day treatment. EIC is indicative of islet neogenesis, as previously described by Lipsett and Finegood (Diabetes 51:1834-1841 (2002)).

[4] = system: STZ induced diabetic mice; test: Efficacy in streptozotocin (STZ) induced diabetic mice model; assay type: in vivo, mouse; conditions: 5 mg/kg or 25 mg/kg for 20 days
Experimental: After acclimatization in the animal facility for one week, 6-8 weeks old C57BL/6J mice were administered low dose STZ at 40 mg/kg in citrate buffer for 5 consecutive days to establish a T1D animal model. Mice with blood glucose greater than 16.7 mmol/L at 5 days post last STZ injection were included in the study. These mice were then treated with INGAP-PP (Peptide 1) or Peptide 7 at the doses of 5 mg/kg (2.5 mg/kg, bid (twice a day)) or 25 mg/kg (12.5 mg/kg, bid) for 20 days before sacrifices. Two additional groups of diabetic mice were administered either saline or a peptide (Peptide 3) composed of a scrambled sequence of amino acids from Peptide 1 as control groups. Blood glucose and insulin levels were measured, and 20 days post the last dosing of test agents, an oral glucose tolerance test (OGTT) was performed in 6 hour fasted animals to determine the effect of Peptide 1 and Peptide 7. Blood samples obtained from the tail cut for glucose determination were detected with an ACCU-CHEK™ glucometer (Roche, ACCU-CHEK® Active), and insulin levels were determined with Rat/Mouse Insulin Elisa kit (Millipore, Billerica, Mass. USA). For the OGTT, after the measurement of the basal glucose concentration (T=−30 min), mice received an oral glucose challenge at 2 g/kg and glucose values were determined by glucometer at 0, 15, 30, 60, 90 and 120 min.

[5] = system: normal C57BL/6J mice; test: Induction of small β-cell clusters in normal C57BL/6J mice (islet size distribution); assay type: in vivo, mouse
Experimental: After a 1-week acclimation, C57BL/6J female mice were randomly divided into 4 groups. The two control groups received either 10 mL/kg sterile normal saline (n=4) or scrambled peptide (Peptide 3, 25 mg/kg) (n=5) via subcutaneous injection for 10 days. The other two groups received INGAP-PP (Peptide 1) or INGAP-PP analog Peptide 7 at a dose of 25 mg/kg per day respectively (n=7 per group) for the same period. Body weight and 6 hour fasting blood glucose were measured before treatment and after the last dosing of treatment. Plasma and pancreatic insulin were also measured at the end of the study. On day 11, the pancreas was removed from each animal, cleared of fat and lymph nodes, weighed, and fixed in 10% neutral buffered formalin (NBF) for no longer than 24 hours before processing for morphometric analysis.
Immunohistochemistry analysis was used to determine pancreatic islet size distribution.

Row | Substance | stability in culture medium [1] | time stable in isotonic acetate buffer (pH 5.0) at 4° C. [2] | time stable in isotonic acetate buffer (pH 5.0) at 25° C. [2] | islet neogenesis efficacy relative to INGAP-PP ([3]; analog 5 mg/kg vs INGAP-PP 50 mg/kg, 10 days) | number of extra islet cluster (EIC) ([3]; female C57BL/6J mice, 10 days sc, INGAP-PP 50 mg/kg, analogs 5 mg/kg per day, FIG. 9A) | total area of EIC ([3]; female C57BL/6J mice, 10 days sc, INGAP-PP 50 mg/kg, analogs 5 mg/kg per day, FIG. 9B) | effect on body weight or pancreas weight [4] | number of islets, islet size (Log [μm^2]) ranging from 2.1 to 0.7 ([5]; normal female C57BL/6J mice, 25 mg/kg per day, 10 days, versus naive/control group, FIG. 7) | effect on body weight, blood glucose, plasma insulin, pancreas insulin, pancreas weight ([5]; normal mice, 25 mg/kg per day sc for 10 days, compared to saline group)
1 | Ac-IGLHDPSHGTLPNGS-OH [Peptide 16, Ac-IGLHDPSHGTLPNGS-OH] | significantly more stable than INGAP-PP peptide in culture medium | up to 90 days | less than 7 days |  |  |  |  |  | 
2 | Ac-IGLHDPSHGTLPNGS-NH2 [Peptide 31, Ac-IGLHDPSHGTLPNGS-NH2] |  | up to 90 days | less than 7 days | comparable or improved efficacy was achieved at a dose one tenth of INGAP-PP | statistically greater than that of INGAP-PP (Peptide 1) (50 mg/kg) treated group | statistically greater than that of INGAP-PP (Peptide 1) (50 mg/kg) treated group |  |  | 
3 | H-IGLHDPSHGTLPNGS-OH [Peptide 1, H-IGLHDPSHGTLPNGS-OH, reference compound] |  |  |  |  |  |  | did not affect body weight or pancreas weight | only observed in islet size of 2.1 | did not affect body weight, blood glucose, plasma insulin, pancreas insulin, or pancreas weight
